# Data: US20230152304A1 (SHENZHEN MINDRAY BIO-MEDICAL ELECTRONICS CO., LTD., priority 2020, published 2023)
# Tests used:
# [1] = pKa of the amino group of the compound; settings: pKa
# From the text: For the compound having a plurality of amino groups/imino groups, the pKa of amino group described herein refers to the first dissociation constant, that is, pKa of amino group or imino group which firstly dissociates hydrogen ion.
# [2] = test system: platelet aggregation induced by THR; assay: Disaggregation over time of THR-induced platelet aggregation; type: cell-based; settings: FIG. 8; 10 mmol/L, pH 9.5, THR 0.1-0.35 U
# Description: (§1) Specifically, according to the method similar to Example 1, the amino group-containing compound (1-acetylguanidine) was added to a diluent to treat blood samples in which different concentrations of aggregation inducer were added. Then the samples were tested, in which the test was performed every 5 min after the treatment solution was added to each sample so as to obtain the change of disaggregation rates over time.
# Similarly, FIG. 7 and FIG. 8 show curve graphs of platelet aggregation tests induced by THR at different concentrations. The substantially same method as the above-mentioned was used, except that ADP was replaced by THR. The concentrations of THR were 0.1 U, 0.15 U, 0.2 U, 0.23 U, 0.25 U, 0.28 U, 0.30 U and 0.35 U, respectively. […] This was because after a certain concentration of THR was added, soluble fibrinogen converted to […], causing blood coagulation, and platelets were also wrapped by […], resulting in a sharp increase in aggregation rate. […] However, a good disaggregation rate can be achieved when samples were tested immediately after treatment.
# [3] = test system: platelet aggregation induced by COL; assay: Disaggregation over time of COL-induced platelet aggregation; type: cell-based; settings: FIG. 10; 10 mmol/L, pH 9.5, COL 0.05-20 mM, except lowest concentration
# Description: as §1
# FIG. 9 and FIG. 10 show curve graphs of platelet aggregation tests induced by COL at different concentrations. The substantially same method as the above-mentioned was used, except that ADP was replaced by COL. The concentrations of COL were 0.05 mM, 0.1 mM, 0.5 mM, 1 mM, 5 mM, 10 mM and 20 mM, respectively.
# [4] = test system: platelet aggregation induced by RIS; assay: Disaggregation over time of RIS-induced platelet aggregation; type: cell-based; settings: FIG. 12; 10 mmol/L, pH 9.5, RIS 0.15-3 mM
# Description: as §1
# FIG. 11 and FIG. 12 show curve graphs of platelet aggregation tests induced by RIS at different concentrations. The substantially same method as the above-mentioned was used, except that ADP was replaced by RIS. The concentrations of RIS were 0.15 mM, 0.375 mM, 0.75 mM, 1.5 mM and 3 mM, respectively. […] In addition, the disaggregation effect of 1-acetylguanidine can reach the highest immediately for RIS at various concentrations, and remained relatively stable within 10 min. The rapid decrease in the disaggregation rate after 15 min was also because the blood in the samples was coagulated.
# [5] = test system: aggregated platelets induced by ADP; assay: Platelet disaggregation rate of blood samples with ADP-induced platelet aggregation (hematology analyzer, PLT_O)
# Description: The compounds in Table 1 above were respectively added to a diluent used for a hematology analyzer to prepare blood sample diluents. […] Each of the compounds in Table 1 (at a final concentration 0.01 mol/L) was added to the diluent separately, pH was adjusted to 14, and the osmotic pressure was adjusted to 200 mOsm/L to obtain the treatment solution.
# The venous blood of a healthy subject was collected into blood anticoagulant tubes for later use. Two aliquot blood samples (1 ml/sample) were taken. The above-mentioned diluent was added to one of the samples, the resulting solution was mixed evenly, and then the platelet count was detected in a hematology analyzer (Mindray BC-6000Plus) and recorded as: PLT_O (unaggregated). The platelet aggregation inducer ADP (at a final concentration of 0.01 mmol/L) was added to the other sample, and the resulting solution was mixed evenly. Platelets were aggregated 5 min later, at this time the above-mentioned diluent was added, and then the blood containing the aggregated platelets was detected by the hematology analyzer to obtain the platelet count, which was recorded as: PLT_O (aggregated). Another 1 ml of blood sample was taken, the platelet aggregation inducer ADP (at a final concentration of 0.01 mmol/L) was added, and the resulting solution was mixed evenly. The above-mentioned treatment solution was added 5 min later, the resulting solution was mixed evenly, and then the platelet count of the treated blood was detected by the hematology analyzer and was recorded as: PLT_O (disaggregated).
# platelets = assay: Induction of platelet aggregation in venous blood by inducers (aggregation rate, impedance channel PLT_I); type: cell-based; settings: for time until platelet aggregation reached the maximum degree: after inducer was added, different concentrations
# From the text: Platelet aggregation can be induced by a variety of substances, thereby leading to blood coagulation. In order to investigate the disaggregation effects of amino group-containing compounds on platelet aggregation induced by different factors, in this example, substances, which can induce platelet aggregation, in the blood coagulation test scheme were selected according to the existing platelet aggregation pathways, and a variety of platelet aggregation models were established. The substances included adenosine diphosphate (ADP), thrombin (THR), collagen (COL) and ristocetin (RIS). […] In addition, the amino group-containing compounds can also effectively disaggregate the platelets having different inducements and aggregation degrees in certain concentration ranges and time ranges.
# Specifically, several samples of 1 ml of venous blood were taken, and ADP was added to each sample to make the final concentrations be 0.01 mM, 0.25 mM, 0.5 mM and 1 mM respectively. The blood containing aggregated platelets was tested by using a hematology analyzer. The features including numbers, sizes, etc., of various cell particles in the blood were obtained by means of an impedance channel and an optical channel in the hematology analyzer. Normal blood was collected into blood anticoagulant tubes, and then the number of platelet particles detected by the impedance channel in the hematology analyzer was obtained and recorded as (PLT_I). When platelet aggregation occurred, the volume of a particle of the aggregated platelets was much larger than the volume of a single platelet and therefore the accurate count cannot be achieved by means of a corresponding platelet recognition mechanism. As a result, the platelet count was lowered and recorded as PLT_I (aggregated). No amino group-containing compound was added to the diluent of the impedance channel, thus the impedance channel reflected the degree of platelet aggregation in this aggregation model. The platelet count before aggregation was recorded as PLT_I (unaggregated), the platelet count after aggregation was recorded as PLT_I (aggregated), and the aggregation rate=PLT_I (aggregated)/PLT_I (unaggregated). The number of platelet particles tested by means of the optical channel in the hematology analyzer was obtained and recorded as (PLT_O). […] The platelet count before aggregation was recorded as PLT_O (unaggregated), and the platelet count after aggregation was recorded as PLT_O (undisaggregated). […] On the basis of the above principle, the model was established, and the disaggregation effect of the amino group-containing compound was quantitatively determined.
compound,measurement,setting,value
CC(=O)NC(=N)N [1-acetylguanidine],pKa,[1]; Example 4,8.33
same,pKa,[1]; Table 4,8.33
same,pKa,[1]; Table 5,8.3
same,time after which the disaggregation effect decreased significantly,[2],1 min
same,time after which the disaggregation effect decreased significantly,[3],4 to 8 min
same,time after which the disaggregation rate decreased rapidly,[4],15 min
same,disaggregation rate,"[5]; FIG. 3, ambient pH varied 7.0-10, after pH increase",97.32%
same,disaggregation rate,"[5]; FIG. 3, ambient pH varied 7.0-10, low end of pH range",35.23%
same,disaggregation effect on platelet aggregation with various aggregation degrees,"[5]; FIG. 6, 10 mmol/L, pH 9.5, ADP 0.01-1 mM",remarkable disaggregation effects
same,disaggregation effect,"[5]; FIG. 14, 50 mmol/L (total for combination, equal parts), ADP 0.1 mmol/L",62.14%
same,Platelet disaggregation rate,"[5]; Table 4, pH 10.8, method of Example 1",97.35%
same,disaggregation rate,"[5]; Table 5, pH 9.5, method of Example 1",97.11%
"Nc1ncnc2c1ncn2[C@@H]1O[C@H](COP(=O)(O)OP(=O)(O)O)[C@@H](O)[C@H]1O [ADP, adenosine diphosphate]",platelet aggregation achieved at most,"platelets; FIG. 5, ADP 0.01 mM",about 35%
same,time until platelet aggregation reached the maximum degree,platelets,≤ 5 min
collagen,degree of platelet aggregation,"platelets; FIG. 9, COL at various concentrations (0.05-20 mM)",~100%
ristocetin,time until platelet aggregation reached the maximum degree,platelets,15 to 20 min
